Measurements: US12295936B2, “Immunomodulating urea azalides” (Zoetis Services LLC, priority 2020, dated 2025)
Like-named read-outs stand apart in the source and are kept apart here.

Legend:
Assay in all cases: LPS-stimulated whole bovine blood assay, MSD cytokine detection
Type in all cases: cell-based
IL-6 = details: Bos taurus, read-out: IL-6 (IC50 μM)
From the text: In order to correlate RNA sequencing data to cytokine changes the whole blood assay was utilized. […] The enhancement result represents an overall stimulation of cytokine levels due to cellular stress or potential toxicity with increasing concentrations of the compound, representing a typical bell shape response curve for immunomodulatory activity.

TNF-α = details: Bos taurus, read-out: TNF-α (IC50 μM)
IL-1β = details: overstimulation of IL-1β, LPS-stimulated bovine whole blood
[1] = LPS-stimulated bovine whole blood

Row | IC50 (IL-6; [1]) [µM] | IC50 (TNF-α; [1]) [µM] | Structure (SMILES) | IC50 (IL-6) [µM] | IC50 (TNF-α) [µM] | IL-1β OS of LPS (IL-1β) [µM]
1 | – | – | CCCNC[C@]1(O)[C@H](C)O[C@@H](O[C@H]2[C@H](C)[C@@H](O[C@@H]3O[C@H](C)C[C@H](N(C)C(=O)N(C)c4cnn(C)c4)[C@H]3O)[C@](C)(O)C[C@@H](C)CN[C@H](C)[C@@H](O)[C@](C)(O)[C@@H](CC)OC(=O)[C@@H]2C)C[C@@]1(C)OC [Example H-58, 1-((2S,3R,4S,6R)-2-(((2R,3S,4R,5R,8R,10R,11R,12S,13S,14R)-2-ethyl-3,4,10-trihydroxy-13-(((2R,4R,5S,6S)-5-hydroxy-4-methoxy-4,6-dimethyl-5-((propylamino)methyl)tetrahydro-2H-pyran-2-yl)oxy)-3,5,8,10,12,14-hexamethyl-15-oxo-1-oxa-6-azacyclopentadecan-11-yl)oxy)-3-hydroxy-6-methyltetrahydro-2H-pyran-4-yl)-1,3-dimethyl-3-(1-methyl-1H-pyrazol-4-yl)urea] | > 250 | > 250 | >250
2 | > 250 | 106 | CC[C@H]1OC(=O)[C@H](C)[C@@H](O[C@H]2C[C@@](C)(OC)[C@](O)(CN)[C@H](C)O2)[C@H](C)[C@@H](O[C@@H]2O[C@H](C)C[C@H](N(C)C(=O)N(C)c3ccccc3)[C@H]2O)[C@](C)(O)C[C@@H](C)CN[C@H](C)[C@@H](O)[C@]1(C)O [Example H-66, 1-((2S,3R,4S,6R)-2-(((2R,3S,4R,5R,8R,10R,11R,12S,13S,14R)-13-(((2R,4R,5S,6S)-5-(aminomethyl)-5-hydroxy-4-methoxy-4,6-dimethyltetrahydro-2H-pyran-2-yl)oxy)-2-ethyl-3,4,10-trihydroxy-3,5,8,10,12,14-hexamethyl-15-oxo-1-oxa-6-azacyclopentadecan-11-yl)oxy)-3-hydroxy-6-methyltetrahydro-2H-pyran-4-yl)-1,3-dimethyl-3-phenylurea] | – | – | 250
3 | 8 | 14 | CCCNC[C@]1(O)[C@H](C)O[C@@H](O[C@H]2[C@H](C)[C@@H](O[C@@H]3O[C@H](C)C[C@H](N(CCC)C(=O)N(C)c4ccccc4)[C@H]3O)[C@](C)(O)C[C@@H](C)CN[C@H](C)[C@@H](O)[C@](C)(O)[C@@H](CC)OC(=O)[C@@H]2C)C[C@@]1(C)OC [Example H-69, 1-((2S,3R,4S,6R)-2-(((2R,3S,4R,5R,8R,10R,11R,12S,13S,14R)-2-ethyl-3,4,10-trihydroxy-13-(((2R,4R,5S,6S)-5-hydroxy-4-methoxy-4,6-dimethyl-5-((propylamino)methyl)tetrahydro-2H-pyran-2-yl)oxy)-3,5,8,10,12,14-hexamethyl-15-oxo-1-oxa-6-azacyclopentadecan-11-yl)oxy)-3-hydroxy-6-methyltetrahydro-2H-pyran-4-yl)-3-methyl-3-phenyl-1-propylurea] | – | – | 6
4 | 4 | 13 | CCCNC[C@]1(O)[C@H](C)O[C@@H](O[C@H]2[C@H](C)[C@@H](O[C@@H]3O[C@H](C)C[C@H](N(CC(C)C)C(=O)N(C)c4ccccc4)[C@H]3O)[C@](C)(O)C[C@@H](C)CN[C@H](C)[C@@H](O)[C@](C)(O)[C@@H](CC)OC(=O)[C@@H]2C)C[C@@]1(C)OC [Example H-70, 1-((2S,3R,4S,6R)-2-(((2R,3S,4R,5R,8R,10R,11R,12S,13S,14R)-2-ethyl-3,4,10-trihydroxy-13-(((2R,4R,5S,6S)-5-hydroxy-4-methoxy-4,6-dimethyl-5-((propylamino)methyl)tetrahydro-2H-pyran-2-yl)oxy)-3,5,8,10,12,14-hexamethyl-15-oxo-1-oxa-6-azacyclopentadecan-11-yl)oxy)-3-hydroxy-6-methyltetrahydro-2H-pyran-4-yl)-1-isobutyl-3-methyl-3-phenylurea] | – | – | 6
